Entries after “also recorded” stand apart in the source; their conditions may differ.
Test system: HUVECs
Assay: Cell proliferation assay, HUVECs
Type: cell-based, human
Details: NMN 500 μM, 48 h, complete growth medium
Experimental: ECs (0.1×10^5 cells) were seeded in a 48-well plate and incubated with PBS (vehicle) or NMN (500 μM) in complete growth medium for 48 h. At the end of the incubation time, the cells were harvested and resuspended in Opti-MEM medium. Cell number was determined using flow cytometry (FACSCanto II Analyzer, BD Biosciences, USA).

NC(=O)c1ccc[n+]([C@@H]2O[C@H](COP(=O)([O-])O)[C@@H](O)[C@H]2O)c1 [NMN, nicotinamide mononucleotide]
cell growth (relative cell number): promoted cell growth; also recorded: induced proliferation

Reference: US12616713B2, “Methods for enhancing vascular density” (priority 2016, dated 2026)
